ChEMBL document CHEMBL2203167, “Structural modifications of 5,6-dihydroxypyrimidines with anti-HIV activity” (Bioorg Med Chem Lett, 2012)

Experiments:
[1] = system: Human immunodeficiency virus 1; assay: Antiviral activity against HIV1 3B infected in human C8166 cells assessed as inhibition of syncytia after 3 days; format: functional, organism-based; settings: Human immunodeficiency virus 1, 3B, C8166, 72 h
[2] = Therapeutic index, ratio of CC50 for human C8166 cells to EC50 for HIV1 3B; format: cell-based; settings: read-out: Ratio CC50/EC50
[3] = Cytotoxicity against human C8166 cells after 3 days by MTT assay; format: cell-based

| SMILES | EC50 [1] | selectivity ratio [2] | CC50 at 72 h [3] |
| --- | --- | --- | --- |
| COc1ccc(CNC(=O)c2nc(C(C)(C)NC(=O)OCc3ccccc3)nc(O)c2O)cc1 | 0.15 µM | 1090 | 164 µM |
| COc1cc(CNC(=O)c2nc(C(C)(C)NC(=O)OCc3ccccc3)nc(O)c2O)cc(OC)c1OC | 12.3 µM | 8.89 | 110 µM |
| CC(C)(NC(=O)OCc1ccccc1)c1nc(O)c(O)c(C(=O)NCCc2ccc(F)cc2)n1 | 8.61 µM | 4.11 | 35.4 µM |
| CC(C)(NC(=O)OCc1ccccc1)c1nc(O)c(O)c(C(=O)NCCc2ccccc2)n1 | 11.6 µM | 3.32 | 38.5 µM |
| CC(C)(NC(=O)OCc1ccccc1)c1nc(O)c(O)c(C(=O)NCCc2cc3ccccc3[nH]2)n1 | 7.12 µM | 4.76 | 34.1 µM |
| COCCNC(=O)c1nc(C(C)(C)NC(=O)OCc2ccccc2)nc(O)c1O | 26 µM | 13.4 | 348 µM |
| COCCCNC(=O)c1nc(C(C)(C)NC(=O)OCc2ccccc2)nc(O)c1O | 8.3 µM | 31.2 | 259 µM |
| CC(C)(NC(=O)OCc1ccccc1)c1nc(O)c(O)c(C(=O)NCC2CC2)n1 | 24.4 µM | 8.33 | 204 µM |
| CC(C)(NC(=O)OCc1ccccc1)c1nc(O)c(O)c(C(=O)NN)n1 | 164 µM | > 3.37 | > 500 µM |
| CC(C)(NC(=O)OCc1ccccc1)c1nc(O)c(O)c(C(=O)N/N=C/c2ccc(F)cc2)n1 | 27.7 µM | 13.7 | 378 µM |
| CC(C)(NC(=O)OCc1ccccc1)c1nc(O)c2oc(=O)[nH]c2n1 | 74.2 µM | > 7.83 | > 500 µM |
| CC(C)(NC(=O)OCc1ccccc1)c1nc(O)c(O)c(NC(=O)NCc2ccc(F)cc2)n1 | 9.87 µM | 8.21 | 81.1 µM |
| COc1ccc(CNC(=O)Nc2nc(C(C)(C)NC(=O)OCc3ccccc3)nc(O)c2O)cc1 | 93.2 µM | 4.46 | > 500 µM |
| COCCNC(=O)Nc1nc(C(C)(C)NC(=O)OCc2ccccc2)nc(O)c1O | 52.3 µM | > 9.13 | > 500 µM |
| CC(C)(NC(=O)OCc1ccccc1)c1nc(O)c(O)c(C(=O)NCc2ccccc2)n1 | 0.32 µM | 128 | 41.4 µM |
| CC(C)(NC(=O)OCc1ccccc1)c1nc(O)c(O)c(C(=O)NCc2ccccc2Cl)n1 | 0.14 µM | 396 | 53.9 µM |
| Cc1ccc(CNC(=O)c2nc(C(C)(C)NC(=O)OCc3ccccc3)nc(O)c2O)cc1 | 0.55 µM | 383 | 234 µM |
| CC(C)(NC(=O)OCc1ccccc1)c1nc(O)c(O)c(C(=O)NCc2ccc(C(F)(F)F)cc2)n1 | 0.24 µM | 244 | 58.1 µM |
| Cc1cn([C@H]2C[C@H](N=[N+]=[N-])[C@@H](CO)O2)c(=O)[nH]c1=O [ZIDOVUDINE] | 0.019 µM | 274000 | – |
